Data taken from publication PMC12573178, “Substrate-Guided Development of HDAC11-Selective Inhibitors Featuring α‑Amino Amide Zinc-Binding Groups” (ACS Omega, 2025).

Target: T1, SIRT2 (Homo sapiens, UniProt Q8IXJ6)
T1 sequence (Q8IXJ6 1-389): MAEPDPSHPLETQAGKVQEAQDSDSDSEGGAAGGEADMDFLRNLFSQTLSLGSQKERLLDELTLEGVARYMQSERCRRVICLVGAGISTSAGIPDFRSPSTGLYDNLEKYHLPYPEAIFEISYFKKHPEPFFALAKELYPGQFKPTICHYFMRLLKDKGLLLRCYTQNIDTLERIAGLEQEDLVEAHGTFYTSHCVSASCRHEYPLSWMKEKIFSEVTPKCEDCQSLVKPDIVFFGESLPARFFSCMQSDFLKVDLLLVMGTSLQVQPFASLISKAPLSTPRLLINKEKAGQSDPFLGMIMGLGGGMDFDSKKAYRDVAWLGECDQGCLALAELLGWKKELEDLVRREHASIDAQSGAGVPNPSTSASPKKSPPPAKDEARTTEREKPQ
Test: SIRT2 inhibition assays (continuous / discontinuous demyristoylation)
Type: biochemical
Protocol: Inhibition of the enzymatic activity of HDACs was performed continuously for HDAC8, HDAC11, and SIRT2 and discontinuously for SIRT2, 3, and 6 using adequate substrates as described previously. , Experimental details are given in the Supporting Information.
A. HDAC and SIRT deacylase activity assays
Continuous in vitro HDAC inhibition assays
The inhibitors were tested using 384-well plates (GreinerONe). After 5 min of incubation of the inhibitors together with the respective enzymes (HDAC8 = 2 nM, HDAC11 = 20 nM, SIRT2 = 1 nM), the reactions were always started by the addition of substrate for the Zn2+-dependent HDAC and by the addition of NAD+ for SIRT2. […]
The fluorescence increase was followed for 1 h with two reads per min using a PerkinElmer Envision 2104 multilabel plate reader. […] The measured values were normalized accordingly. […] The data were fitted using the GraphPad Prism8 software and kinetic values calculated through non-linear regression analysis. […]
Reactions were stopped after 20 min by adding a constant volume of reaction mixture to stop solution (5 % acetonitrile (ACN) (v/v) and 1 % trifluoroacetic acid (TFA) (v/v) in dd. H 2O). The samples were analysed using HPLC-UV/VIS at λ Abs = 220 nm, λ Ex = 320 nm und λ Em = 420 nm. […]
100 nM, SIRT3: 200 nM, SIRT6: 500 nM). […] The samples were analysed using HPLC-UV/VIS at λ Abs = 360 nm. […]

In the case of `CCCCCCCCCCCCSC[C@@H](N)C(=O)NCCCC[C@@H]1NC(=O)[C@H](CCC(N)=O)NC1=O` [Compound 31], the IC50 is reported as > 20 µM and the inhibition at 50 µM (50 μM 31) is reported as 41.5%.
